According to article PMC6946680, “Modulation of brain cation-Cl^− cotransport via the SPAK kinase inhibitor ZT-1a” (Nature Communications, 2020):

Columns and labels:
Test in all cases: Kinase profiling panel
Format in all cases: biochemical
[1] = test system: JNK3
Procedure: (§1) Supplementary Table 2. ZT-1a kinase profiling data6.
(§2) ZT-1a was tested at 10 and 1 µM against a panel of 140 recombinant kinases in an enzymatic
(§3) activity-based assay performed by the International Centre for Kinase Profiling in the MRC
(§4) Protein Phosphorylation and Ubiquitylation Unit. Values represent % residual kinase activity

[2] = test system: MARK3
Procedure: as §1, §2, §3, §4

[3] = test system: GSK3b
Procedure: as §1, §2, §3, §4

[4] = test system: TAK1
Procedure: as §1, §2, §3, §4

[5] = test system: DAPK1
Procedure: as §1, §2, §3, §4

[6] = test system: YES1
Procedure: as §1, §2, §3, §4

[7] = test system: PKD1
Procedure: as §1, §2, §3, §4

[8] = test system: Aurora A
Procedure: as §1, §2, §3, §4

[9] = test system: MKK1
Procedure: as §1, §2, §3, §4

[10] = test system: CHK2
Procedure: as §1, §2, §3, §4

[11] = test system: TESK1
Procedure: as §1, §2, §3, §4

[12] = test system: CLK2
Procedure: as §1, §2, §3, §4

[13] = test system: HER4
Procedure: as §1, §2, §3, §4

[14] = test system: OSR1
Procedure: as §1, §2, §3, §4

[15] = test system: RIPK2
Procedure: as §1, §2, §3, §4

[16] = test system: JNK1
Procedure: as §1, §2, §3, §4

[17] = test system: SIK3
Procedure: as §1, §2, §3, §4

[18] = test system: Src
Procedure: as §1, §2, §3, §4

[19] = test system: MARK2
Procedure: as §1, §2, §3, §4

[20] = test system: TSSK1
Procedure: as §1, §2, §3, §4

[21] = test system: MAP4K5
Procedure: as §1, §2, §3, §4

[22] = test system: RSK1
Procedure: as §1, §2, §3, §4

[23] = test system: PAK2
Procedure: as §1, §2, §3, §4

[24] = test system: EPH-B3
Procedure: as §1, §2, §3, §4

[25] = test system: JNK2
Procedure: as §1, §2, §3, §4

[26] = test system: CDK2-Cyclin A
Procedure: as §1, §2, §3, §4

[27] = test system: p38g MAPK
Procedure: as §1, §2, §3, §4

[28] = test system: TBK1
Procedure: as §1, §2, §3, §4

[29] = test system: ERK2
Procedure: as §1, §2, §3, §4

[30] = test system: ABL
Procedure: as §1, §2, §3, §4

[31] = test system: Lck
Procedure: as §1, §2, §3, §4

[32] = test system: TIE2
Procedure: as §1, §2, §3, §4

[33] = test system: CAMK1
Procedure: as §1, §2, §3, §4

[34] = test system: p38a MAPK
Procedure: as §1, §2, §3, §4

[35] = test system: NEK2a
Procedure: as §1, §2, §3, §4

[36] = test system: CK2
Procedure: as §1, §2, §3, §4

[37] = test system: ERK1
Procedure: as §1, §2, §3, §4

[38] = test system: MST2
Procedure: as §1, §2, §3, §4

[39] = test system: MNK2
Procedure: as §1, §2, §3, §4

[40] = test system: Aurora B
Procedure: as §1, §2, §3, §4

[41] = test system: LKB1
Procedure: as §1, §2, §3, §4

[42] = test system: MELK
Procedure: as §1, §2, §3, §4

[43] = test system: SIK2
Procedure: as §1, §2, §3, §4

[44] = test system: PKCγ
Procedure: as §1, §2, §3, §4

## Cc1cc(C(C#N)c2ccc(Cl)cc2)c(Cl)cc1NC(=O)c1cc(Cl)ccc1O (stereo not shown) [ZT-1a, 5-chloro-N-(5-chloro-4-((4-chlorophenyl)(cyano)methyl)-2-methylphenyl)-2-hydroxybenzamide]
[1]; 1 µM
  % residual kinase activity: 63±15%
[1]; 10 µM
  % residual kinase activity: 60±10%
[2]; 1 µM
  % residual kinase activity: 71±6%
[2]; 10 µM
  % residual kinase activity: 68±8%
[3]; 1 µM
  % residual kinase activity: 39±4%
[3]; 10 µM
  % residual kinase activity: 38±12%
[4]; 1 µM
  % residual kinase activity: 117±22%
[4]; 10 µM
  % residual kinase activity: 103±5%
[5]; 1 µM
  % residual kinase activity: 131±8%
[5]; 10 µM
  % residual kinase activity: 159±11%
[6]; 1 µM
  % residual kinase activity: 109±3%
[6]; 10 µM
  % residual kinase activity: 98±7%
[7]; 1 µM
  % residual kinase activity: 89±0%
[7]; 10 µM
  % residual kinase activity: 79±10%
[8]; 1 µM
  % residual kinase activity: 73±19%
[8]; 10 µM
  % residual kinase activity: 65±1%
[9]; 1 µM
  % residual kinase activity: 106±2%
[9]; 10 µM
  % residual kinase activity: 114±17%
[10]; 1 µM
  % residual kinase activity: 106±1%
[10]; 10 µM
  % residual kinase activity: 68±6%
[11]; 1 µM
  % residual kinase activity: 109±3%
[11]; 10 µM
  % residual kinase activity: 77±10%
[12]; 1 µM
  % residual kinase activity: 68±12%
[12]; 10 µM
  % residual kinase activity: 33±45%
[13]; 1 µM
  % residual kinase activity: 85±8%
[13]; 10 µM
  % residual kinase activity: 84±1%
[14]; 1 µM
  % residual kinase activity: 106±9%
[14]; 10 µM
  % residual kinase activity: 98±3%
[15]; 1 µM
  % residual kinase activity: 128±5%
[15]; 10 µM
  % residual kinase activity: 120±3%
[16]; 1 µM
  % residual kinase activity: 106±4%
[16]; 10 µM
  % residual kinase activity: 110±5%
[17]; 1 µM
  % residual kinase activity: 104±9%
[17]; 10 µM
  % residual kinase activity: 88±0%
[18]; 1 µM
  % residual kinase activity: 107±4%
[18]; 10 µM
  % residual kinase activity: 84±13%
[19]; 1 µM
  % residual kinase activity: 103±8%
[19]; 10 µM
  % residual kinase activity: 89±15%
[20]; 1 µM
  % residual kinase activity: 99±2%
[20]; 10 µM
  % residual kinase activity: 74±6%
[21]; 1 µM
  % residual kinase activity: 95±28%
[21]; 10 µM
  % residual kinase activity: 76±9%
[22]; 1 µM
  % residual kinase activity: 95±2%
[22]; 10 µM
  % residual kinase activity: 87±4%
[23]; 1 µM
  % residual kinase activity: 110±4%
[23]; 10 µM
  % residual kinase activity: 93±8%
[24]; 1 µM
  % residual kinase activity: 88±6%
[24]; 10 µM
  % residual kinase activity: 84±6%
[25]; 1 µM
  % residual kinase activity: 102±2%
[25]; 10 µM
  % residual kinase activity: 147±51%
[26]; 1 µM
  % residual kinase activity: 128±12%
[26]; 10 µM
  % residual kinase activity: 125±6%
[27]; 1 µM
  % residual kinase activity: 100±11%
[27]; 10 µM
  % residual kinase activity: 100±6%
[28]; 1 µM
  % residual kinase activity: 119±10%
[28]; 10 µM
  % residual kinase activity: 94±3%
[29]; 1 µM
  % residual kinase activity: 111±25%
[29]; 10 µM
  % residual kinase activity: 75±3%
[30]; 1 µM
  % residual kinase activity: 85±4%
[30]; 10 µM
  % residual kinase activity: 68±16%
[31]; 1 µM
  % residual kinase activity: 112±13%
[31]; 10 µM
  % residual kinase activity: 127±14%
[32]; 1 µM
  % residual kinase activity: 139±74%
[32]; 10 µM
  % residual kinase activity: 73±11%
[33]; 1 µM
  % residual kinase activity: 60±5%
[33]; 10 µM
  % residual kinase activity: 71±31%
[34]; 1 µM
  % residual kinase activity: 128±7%
[34]; 10 µM
  % residual kinase activity: 113±2%
[35]; 1 µM
  % residual kinase activity: 85±12%
[35]; 10 µM
  % residual kinase activity: 91±6%
[36]; 1 µM
  % residual kinase activity: 72±15%
[36]; 10 µM
  % residual kinase activity: 59±16%
[37]; 1 µM
  % residual kinase activity: 107±16%
[37]; 10 µM
  % residual kinase activity: 109±18%
[38]; 1 µM
  % residual kinase activity: 115±4%
[38]; 10 µM
  % residual kinase activity: 113±2%
[39]; 1 µM
  % residual kinase activity: 100±7%
[39]; 10 µM
  % residual kinase activity: 105±3%
[40]; 1 µM
  % residual kinase activity: 119±6%
[40]; 10 µM
  % residual kinase activity: 92±15%
[41]; 1 µM
  % residual kinase activity: 107±8%
[41]; 10 µM
  % residual kinase activity: 115±11%
[42]; 1 µM
  % residual kinase activity: 130±34%
[42]; 10 µM
  % residual kinase activity: 63±3%
[43]; 1 µM
  % residual kinase activity: 105±16%
[43]; 10 µM
  % residual kinase activity: 76±8%
[44]; 1 µM
  % residual kinase activity: 133±11%
[44]; 10 µM
  % residual kinase activity: 120±8%
